Columns and labels:
kochia = experiment: Test C postemergence; assay type: in vivo, Kochia scoparia; details: for Plant response rating (scale of 0 to 100 where 0 is no effect and 100 is complete control), Kochia: Postemergence, 31 g ai/ha, visually evaluated after 13 to 15 days; for Kochia plant response rating / Plant response rating, Kochia: postemergence; for Kochia plant response rating: 62 g ai/ha, scale 0 to 100
How it was run: (§1)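 Seeds sown in loam–sand blend and treated preemergence with test chemicals in non-phytotoxic solvent with surfactant; postemergence plants in peat-based medium, treated at 2–18 cm (1- to 4-leaf stage). Greenhouse 13 to 15 days, then visual rating versus controls, 0 (no effect) to 100 (complete control).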

ducksalad = experiment: Test B flood; assay type: in vivo, Heteranthera limosa; details: 250 g ai/ha, visual rating on 0 to 100 scale (0 no effect, 100 complete control), 13 to 15 days
How it was run: (§2)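 Plants were grown to the 2-leaf stage, then pots were flooded to 3 cm above the soil and compounds were applied directly into the paddy water. Water depth was held for the whole test; after 13 to 15 days in a greenhouse, injury was visually rated against untreated controls (0 = no effect, 100 = complete control).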

morningglory = experiment: Test C preemergence; assay type: in vivo, Ipomoea coccinea; details: for Plant response rating (scale of 0 to 100), Morningglory: Preemergence, 250 g ai/ha; for Morningglory plant response rating: preemergence
How it was run: as §1

soybean = experiment: Test C postemergence; assay type: in vivo, Glycine max; details: for Plant response rating (scale of 0 to 100 where 0 is no effect and 100 is complete control), Soybean: Postemergence, 31 g ai/ha, visually evaluated after 13 to 15 days; for Soybean plant response rating / Plant response rating, Soybean: postemergence; for Soybean plant response rating: 62 g ai/ha, scale 0 to 100
How it was run: as §1

waterhemp = experiment: Test C preemergence; assay type: in vivo, Amaranthus rudis; details: for Plant response rating (scale of 0 to 100), Waterhemp: Preemergence, 250 g ai/ha; for Waterhemp plant response rating: preemergence
How it was run: as §1

velvetleaf = experiment: Test C preemergence; assay type: in vivo, Abutilon theophrasti; details: for Plant response rating (scale of 0 to 100), Velvetleaf: Preemergence, 250 g ai/ha; for Velvetleaf plant response rating: preemergence
How it was run: as §1

nutsedge, yellow [1] = experiment: Test C postemergence; assay type: in vivo, Cyperus esculentus; details: for Plant response rating (scale of 0 to 100 where 0 is no effect and 100 is complete control), Nutsedge, Yellow: Postemergence, 31 g ai/ha, visually evaluated after 13 to 15 days; for Nutsedge, Yellow plant response rating / Plant response rating, Nutsedge, Yellow: postemergence; for Nutsedge, Yellow plant response rating: 62 g ai/ha, scale 0 to 100
How it was run: as §1

rice = experiment: Test B flood; assay type: in vivo, Oryza sativa; details: 250 g ai/ha, visual rating on 0 to 100 scale (0 no effect, 100 complete control), 13 to 15 days
How it was run: as §2

barnyardgrass = experiment: Test A preemergence; assay type: in vivo, Echinochloa crus-galli; details: preemergence
How it was run: (§3)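 Ratings express plant response from 0 (no effect) to 100 (complete control), judged visually against untreated controls after approximately 10 days in the greenhouse. Preemergence applications were made as directed soil sprays onto seeded loam–sand mix, and postemergence applications onto 2–10 cm plants at one- to two-leaf stage.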

johnsongrass = experiment: Test C postemergence; assay type: in vivo, Sorghum halepense; details: for Plant response rating (scale of 0 to 100 where 0 is no effect and 100 is complete control), Johnsongrass: Postemergence, 31 g ai/ha, visually evaluated after 13 to 15 days; for Johnsongrass plant response rating / Plant response rating, Johnsongrass: postemergence; for Johnsongrass plant response rating: 62 g ai/ha, scale 0 to 100
How it was run: as §1

lambsquarters = experiment: Test C preemergence; assay type: in vivo, Chenopodium album; details: for Plant response rating (scale of 0 to 100), Lambsquarters: Preemergence, 250 g ai/ha; for Lambsquarters plant response rating: preemergence
How it was run: as §1

nutsedge, yellow [2] = experiment: Test C preemergence; assay type: in vivo, Cyperus esculentus; details: for Plant response rating (scale of 0 to 100), Nutsedge, Yellow: Preemergence, 250 g ai/ha; for Nutsedge, Yellow plant response rating: preemergence
How it was run: as §1

crabgrass, large = experiment: Test A postemergence; assay type: in vivo, Digitaria sanguinalis
How it was run: as §3

[3] = 250 g ai/ha, scale 0 to 100 (0 no effect, 100 complete control)
[4] = 125 g ai/ha, scale 0 to 100, 0 no effect, 100 complete control
[5] = 31 g ai/ha, visual rating, scale 0 to 100 (0 no effect, 100 complete control), 13 to 15 days
[6] = 62 g ai/ha, scale 0 to 100 (0 no effect, 100 complete control), 13 to 15 days
[7] = 125 g ai/ha, scale 0 to 100, 0 is no effect, 100 is complete control
[8] = 125 g ai/ha, visual injury, 0 to 100 scale, approx. 10 days
[9] = 500 g ai/ha, visual injury after approx. 10 days, 0 to 100 scale (0 no effect, 100 complete control)
[10] = Postemergence, 500 g ai/ha, visual rating after approx. 10 days, 0 to 100 scale (0 no effect, 100 complete control)
[11] = postemergence, 125 g ai/ha, about 10 days, visual rating on 0 to 100 scale (0 no effect, 100 complete control)

`CCc1cc(C(=O)NCC(F)(F)F)nn1Cc1nc(C(F)(F)F)nn1C` [Compound 107] was tested, and the “Plant response rating (scale of 0 to 100 where 0 is no effect and 100 is complete control), Kochia” value (kochia) was 50, the “Kochia plant response rating” value (kochia) was 85 and the “Plant response rating, Kochia” value (kochia; [3]) was 90. For the same molecule, the “Plant response rating, Kochia” value (kochia; [4]) was 85, the “Plant response rating, Ducksalad” value (ducksalad) was 70 and the “Plant response rating (scale of 0 to 100), Morningglory” value (morningglory) was 100. For the same molecule, the “Morningglory plant response rating” value (morningglory; [5]) was 90, the “Morningglory plant response rating” value (morningglory; [6]) was 100 and the “Morningglory plant response rating” value (morningglory; [7]) was 100. For the same molecule, the “Plant response rating (scale of 0 to 100 where 0 is no effect and 100 is complete control), Soybean” value (soybean) was 20, the “Soybean plant response rating” value (soybean) was 50 and the “Plant response rating, Soybean” value (soybean; [3]) was 90. The “Plant response rating, Soybean” value (soybean; [4]) was 50, the “Plant response rating (scale of 0 to 100), Waterhemp” value (waterhemp) was 100 and the “Waterhemp plant response rating” value (waterhemp; [5]) was 100. The “Waterhemp plant response rating” value (waterhemp; [6]) was 100, the “Waterhemp plant response rating” value (waterhemp; [7]) was 100 and the “Plant response rating (scale of 0 to 100), Velvetleaf” value (velvetleaf) was 100. For the same molecule, the “Velvetleaf plant response rating” value (velvetleaf; [5]) was 60, the “Velvetleaf plant response rating” value (velvetleaf; [6]) was 85 and the “Velvetleaf plant response rating” value (velvetleaf; [7]) was 100. The “Plant response rating (scale of 0 to 100 where 0 is no effect and 100 is complete control), Nutsedge, Yellow” value (nutsedge, yellow [1]) was 0, the “Nutsedge, Yellow plant response rating” value (nutsedge, yellow [1]) was 0 and the “Plant response rating, Nutsedge, Yellow” value (nutsedge, yellow [1]; [3]) was 40. The “Plant response rating, Nutsedge, Yellow” value (nutsedge, yellow [1]; [4]) was 5, the “Plant response rating, Rice” value (rice) was 30 and the “Barnyardgrass plant response rating” value (barnyardgrass; [8]) was 100. For the same molecule, the “Barnyardgrass plant response rating” value (barnyardgrass; [9]) was 100, the “Plant response rating (scale of 0 to 100 where 0 is no effect and 100 is complete control), Johnsongrass” value (johnsongrass) was 0 and the “Johnsongrass plant response rating” value (johnsongrass) was 0. The “Plant response rating, Johnsongrass” value (johnsongrass; [3]) was 70, the “Plant response rating, Johnsongrass” value (johnsongrass; [4]) was 5 and the “Plant response rating (scale of 0 to 100), Lambsquarters” value (lambsquarters) was 100. For the same molecule, the “Lambsquarters plant response rating” value (lambsquarters; [5]) was 100, the “Lambsquarters plant response rating” value (lambsquarters; [6]) was 100 and the “Lambsquarters plant response rating” value (lambsquarters; [7]) was 100. The “Plant response rating (scale of 0 to 100), Nutsedge, Yellow” value (nutsedge, yellow [2]) was 100, the “Nutsedge, Yellow plant response rating” value (nutsedge, yellow [2]; [5]) was 15 and the “Nutsedge, Yellow plant response rating” value (nutsedge, yellow [2]; [6]) was 60. The “Nutsedge, Yellow plant response rating” value (nutsedge, yellow [2]; [7]) was 85, the “Crabgrass, Large plant response rating” value (crabgrass, large; [10]) was 90 and the “Crabgrass, Large plant response rating” value (crabgrass, large; [11]) was 80.

In the case of `CCc1cc(C(=O)NCC(F)(F)F)nn1Cc1cc(C(F)(F)F)nn1C` [Compound 108, 5-ethyl-1-[[1-methyl-3-(trifluoromethyl)-1H-pyrazole-5-yl]methyl]-N-(2,2,2-trifluoroethyl)-1H-pyrazole-3-carboxamide], the “Plant response rating (scale of 0 to 100 where 0 is no effect and 100 is complete control), Kochia” value (kochia) is reported as 40, the “Kochia plant response rating” value (kochia) is reported as 60 and the “Plant response rating, Kochia” value (kochia; [3]) is reported as 90. The “Plant response rating, Kochia” value (kochia; [4]) was 80, the “Plant response rating, Ducksalad” value (ducksalad) was 60 and the “Plant response rating (scale of 0 to 100), Morningglory” value (morningglory) was 100. The “Morningglory plant response rating” value (morningglory; [5]) was 98, the “Morningglory plant response rating” value (morningglory; [6]) was 100 and the “Morningglory plant response rating” value (morningglory; [7]) was 100. For the same molecule, the “Plant response rating (scale of 0 to 100 where 0 is no effect and 100 is complete control), Soybean” value (soybean) was 30, the “Soybean plant response rating” value (soybean) was 90 and the “Plant response rating, Soybean” value (soybean; [3]) was 98. For the same molecule, the “Plant response rating, Soybean” value (soybean; [4]) was 90, the “Plant response rating (scale of 0 to 100), Waterhemp” value (waterhemp) was 100 and the “Waterhemp plant response rating” value (waterhemp; [5]) was 98. The “Waterhemp plant response rating” value (waterhemp; [6]) was 100, the “Waterhemp plant response rating” value (waterhemp; [7]) was 100 and the “Plant response rating (scale of 0 to 100), Velvetleaf” value (velvetleaf) was 100. The “Velvetleaf plant response rating” value (velvetleaf; [5]) was 55, the “Velvetleaf plant response rating” value (velvetleaf; [6]) was 100 and the “Velvetleaf plant response rating” value (velvetleaf; [7]) was 100. For the same molecule, the “Plant response rating (scale of 0 to 100 where 0 is no effect and 100 is complete control), Nutsedge, Yellow” value (nutsedge, yellow [1]) was 0, the “Nutsedge, Yellow plant response rating” value (nutsedge, yellow [1]) was 0 and the “Plant response rating, Nutsedge, Yellow” value (nutsedge, yellow [1]; [3]) was 25. The “Plant response rating, Nutsedge, Yellow” value (nutsedge, yellow [1]; [4]) was 0, the “Plant response rating, Rice” value (rice) was 15 and the “Barnyardgrass plant response rating” value (barnyardgrass; [8]) was 90. For the same molecule, the “Barnyardgrass plant response rating” value (barnyardgrass; [9]) was 100, the “Plant response rating (scale of 0 to 100 where 0 is no effect and 100 is complete control), Johnsongrass” value (johnsongrass) was 0 and the “Johnsongrass plant response rating” value (johnsongrass) was 0. For the same molecule, the “Plant response rating, Johnsongrass” value (johnsongrass; [3]) was 5, the “Plant response rating, Johnsongrass” value (johnsongrass; [4]) was 0 and the “Plant response rating (scale of 0 to 100), Lambsquarters” value (lambsquarters) was 100. The “Lambsquarters plant response rating” value (lambsquarters; [5]) was 100, the “Lambsquarters plant response rating” value (lambsquarters; [6]) was 100 and the “Lambsquarters plant response rating” value (lambsquarters; [7]) was 100. The “Plant response rating (scale of 0 to 100), Nutsedge, Yellow” value (nutsedge, yellow [2]) was 85, the “Nutsedge, Yellow plant response rating” value (nutsedge, yellow [2]; [5]) was 5 and the “Nutsedge, Yellow plant response rating” value (nutsedge, yellow [2]; [6]) was 40. The “Crabgrass, Large plant response rating” value (crabgrass, large; [10]) was 100 and the “Crabgrass, Large plant response rating” value (crabgrass, large; [11]) was 90.

— US20150105252A1, “SUBSTITUTED PYRAZOLES AS HERBICIDES” (E I DU PONT DE NEMOURS AND COMPANY, priority 2013, published 2015)
